Measurements taken from publication PMC8847575, “HSL1 and BAM1/2 impact epidermal cell development by sensing distinct signaling peptides” (Nature Communications, 2022).
Ends that are not written are not given here.

How the values were obtained:
HSL1 ectodomain = biological target: T1, HSL1 ectodomain (Arabidopsis thaliana, UniProt Q9SGP2); experiment: ITC, peptide titrated into isolated HSL1 ectodomain; conditions: peptide (syringe) into HSL1 ectodomain (cell), 25 °C, 20 mM sodium citrate pH 5.0, 150 mM NaCl, N fitted to 1, mean ± SD of at least two independent experiments, n.d = no binding detected
T1 construct: HSL1 (residues 17-618, AT1G28440); azurocidin or Drosophila BIP signal peptide (secretion signal) (N); made in house; host or cells: Trichoplusia ni Tnao38 insect cells (baculovirus)
T1 sequence (Q9SGP2 17-618): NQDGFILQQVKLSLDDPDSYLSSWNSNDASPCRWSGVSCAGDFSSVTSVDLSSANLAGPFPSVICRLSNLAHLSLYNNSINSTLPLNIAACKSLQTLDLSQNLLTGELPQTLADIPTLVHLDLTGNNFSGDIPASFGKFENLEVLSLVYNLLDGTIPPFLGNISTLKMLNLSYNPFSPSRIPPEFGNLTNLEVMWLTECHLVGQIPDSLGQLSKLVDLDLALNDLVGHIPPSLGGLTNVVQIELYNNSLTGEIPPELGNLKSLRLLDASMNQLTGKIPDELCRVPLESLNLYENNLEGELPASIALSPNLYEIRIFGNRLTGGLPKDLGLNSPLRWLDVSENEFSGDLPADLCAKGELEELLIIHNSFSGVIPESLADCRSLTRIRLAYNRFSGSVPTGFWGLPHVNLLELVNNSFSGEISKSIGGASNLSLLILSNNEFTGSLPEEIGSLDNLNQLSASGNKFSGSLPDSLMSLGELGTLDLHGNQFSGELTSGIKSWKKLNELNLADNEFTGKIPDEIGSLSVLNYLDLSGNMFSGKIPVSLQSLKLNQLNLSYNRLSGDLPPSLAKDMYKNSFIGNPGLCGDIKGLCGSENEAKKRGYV
Source text: (§1) All genes used for protein expression in Trichoplusia ni Tnao38 cells[46] were codon optimized and cloned into a modified pFastBac vector (Geneva Biotech) providing an azurocidin[47] or Drosophila BIP signal peptide, a TEV (tobacco etch virus protease) cleavage site and a Strep-9xHis tandem affinity tag at their carboxy terminus. The genes used are coding for the Arabidopsis ectodomains of HSL1 (residues 17-618, AT1G28440), HAE (residues 20-620, AT4G28490) SERK1 (residues 24–213, AT1G71830), and BAM1 (residues 20–637, AT5G65700). To perform Grating-coupled interferometry (GCI) experiments, HSL1 was fused to a non-cleavable Avi-tag[49],[50]. […] After every expression round, secretion of our proteins was detected using an anti-His-HRP conjugated antibody from Roche (Ref:11965085001) in a 1:2000 dilution. […] Proteins were analyzed for purity and structural integrity by SDS-PAGE.
(§2) Experiments were performed at 25 °C using a MicroCal PEAQ-ITC (Malvern Instruments) with a 200 µL standard cell and a 40 μL titration syringe. […] Molar protein concentrations for HSL1, BAM1, and SERK1 were calculated using their molar extinction coefficient and a molecular weight of 74,896 and 27,551 Da, respectively as previously determined. […] Experiments were done in duplicates or triplicates, otherwise specified, and data were analyzed using the MicroCal PEAQ-ITC Analysis Software provided by the manufacturer. […]

HSL1-SERK1 complex = biological target: T2, HSL1-SERK1 complex (Arabidopsis thaliana, UniProt Q94AG2+Q9SGP2); experiment: ITC, SERK1 titrated into HSL1 plus peptide (ternary complex formation); conditions: SERK1 (syringe) into HSL1 + indicated peptide (cell), 25 °C, 20 mM sodium citrate pH 5.0, 150 mM NaCl, N fitted to 1, mean ± SD of at least two independent experiments, n.d = no binding detected
T2 construct: HSL1 (residues 17-618, AT1G28440); made in house; host or cells: Trichoplusia ni Tnao38 insect cells (baculovirus)
T2 sequence (Q9SGP2 17-618): T1 sequence (Q9SGP2 17-618)
T2 sequence (Q94AG2 24-213 partner limits assumed): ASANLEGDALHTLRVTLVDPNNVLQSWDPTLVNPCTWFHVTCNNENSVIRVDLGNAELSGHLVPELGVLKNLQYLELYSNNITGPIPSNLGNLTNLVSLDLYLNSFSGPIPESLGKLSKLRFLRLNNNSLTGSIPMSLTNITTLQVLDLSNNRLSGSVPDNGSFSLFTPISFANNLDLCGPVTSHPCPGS
Source text: as §1, §2

RLVPSGPNPLHH [CLE13]
Kd (dissociation constant), peptide vs HSL1 (HSL1 ectodomain): could not detect binding
Kd (dissociation constant), SERK1 vs HSL1 + peptide (HSL1-SERK1 complex): no biding was detected
